Entries after “also recorded” stand apart in the source; their conditions may differ.
Assays:
732 biochemicals = assay: Global metabolomic profiling: number of biochemicals significantly changed; format: in vivo, human; conditions: Day 42; for number of biochemicals significantly decreased / number of biochemicals significantly increased: of 732 biochemicals; for share of biochemicals significantly changed / number of biochemicals whose serum levels were significantly changed: of a total of 732 biochemicals; for number of biochemicals whose serum levels were significantly changed: p≦0.05
Excerpt: (§1) Blood samples were taken at 4 days and 6 weeks following treatment. Plasma samples were isolated from whole blood and used for global metabolomic profiling.
(§2) At the time of analysis, samples were thawed and extracts prepared according to a standard protocol, which is designed to remove protein, dislodge small molecules bound to protein or physically trapped in the precipitated protein matrix, and recover a wide range of chemically diverse metabolites. A separate aliquot of each experimental plasma sample was taken then pooled for the creation of “Client Matrix” (CMTRX) samples. These CMTRX samples were injected throughout the platform run and served as technical replicates, allowing variability in the quantitation of all consistently detected biochemicals to be determined and overall process variability and platform performance to be monitored. Extracts of all experimental and CMTRX samples were split for analysis on the GC/MS and LC/MS/MS platforms.
(§3) The CMTRX technical replicate samples were treated independently throughout the process as if they were study samples. All process samples (CMTRX, GROBs—a mixture of organic components used to assess GC column performance, process blanks, etc.) were spaced evenly among the injections for each day and all client samples were randomly distributed throughout each day's run. Data were collected over eight platform run days and thus, ‘block normalized’ by calculating the median values for each run-day block for each individual compound. […] Missing values (if any) were assumed to be below the level of detection for that biochemical with the instrumentation used and were imputed with the observed minimum for that particular biochemical.
Two parameters are typically evaluated when considering statistical significance, namely the p-value and the q-value. […] The q-value describes the false discovery rate; a low q-value (q≦0.10) is an indication of high confidence in a result. Because of the multiple testing occurring in the data sets produced by metabolomic studies, data is often evaluated for false positives.
(§4) Statistical analyses of the data were performed on natural log-transformed data to reduce the effect of any potential outliers in the data. T-test comparisons were calculated using the one or both of the statistical software analysis programs: Array Studio (Omicsoft, Inc) or ‘R’ from the Free Software Foundation, Inc.
(§5) For t-test comparisons, within each group: placebo, lurasidone and olanzapine, the early versus the late time point was compared (i.e., 4 days versus 6 weeks). In addition, both lurasidone and olanzapine were compared with placebo at the appropriate time point and then lurasidone was compared with olanzapine at both 4 days and 6 weeks.

glutamate = assay: Metabolomic analysis of plasma samples: glutamate level; format: in vivo, human
Excerpt: as §1, §2, §3
A number of internal standards were added to each experimental and process standard sample just prior to injection into the mass spectrometers. A measure of the platform variability was determined by calculating the median relative standard deviation (RSD) for these internal standards. […] Because these standards were added to the samples immediately prior to injection into the instrument, this value reflects instrument variation. In addition, the median relative standard deviation (RSD) for the biochemicals that were consistently measured in the CMTRX represents the total variability within the process for the actual experimental samples and the variability in quantitation of the endogenous metabolites within these samples (Table 2).
Biochemical data were analyzed by ANOVA contrasts and a Two-way ANOVA.
as §4, §5

glycine = assay: Metabolomic analysis: glycine level; set-up: species or system human; conditions: in vivo
Excerpt: as §1, §2
(§6) The CMTRX technical replicate samples were treated independently throughout the process as if they were study samples. All process samples (CMTRX, GROBs—a mixture of organic components used to assess GC column performance, process blanks, etc.) were spaced evenly among the injections for each day and all client samples were randomly distributed throughout each day's run. […]

serine = assay: Metabolomic analysis: serine level; set-up: species or system human; conditions: in vivo
Excerpt: as §1, §2, §6

5-HT2A = 5-HT2A (Homo sapiens, UniProt P28223); conditions: reported; cited from earlier work
muscarinic M1 receptors = molecular target: T1, muscarinic M1 receptors (Homo sapiens, UniProt P11229); conditions: reported; cited from earlier work
T1 sequence (P11229 1-460): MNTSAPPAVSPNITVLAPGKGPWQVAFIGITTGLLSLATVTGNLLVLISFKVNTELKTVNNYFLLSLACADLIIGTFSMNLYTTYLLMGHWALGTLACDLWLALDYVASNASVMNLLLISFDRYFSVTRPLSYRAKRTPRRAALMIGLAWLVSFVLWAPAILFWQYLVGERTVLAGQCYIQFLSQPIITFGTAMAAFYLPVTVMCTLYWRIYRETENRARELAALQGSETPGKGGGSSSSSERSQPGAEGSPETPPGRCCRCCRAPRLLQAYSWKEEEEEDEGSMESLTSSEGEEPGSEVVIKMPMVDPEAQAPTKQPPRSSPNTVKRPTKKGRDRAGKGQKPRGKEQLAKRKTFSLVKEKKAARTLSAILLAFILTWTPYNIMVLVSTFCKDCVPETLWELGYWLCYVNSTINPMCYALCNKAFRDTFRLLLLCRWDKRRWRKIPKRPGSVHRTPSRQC

5-HT7 = 5-HT7 (Homo sapiens, UniProt P34969); conditions: reported; cited from earlier work
[1] = molecular target: T2, noradrenaline α2C receptors (Homo sapiens, UniProt P18825); conditions: reported; cited from earlier work
T2 sequence (P18825 1-462): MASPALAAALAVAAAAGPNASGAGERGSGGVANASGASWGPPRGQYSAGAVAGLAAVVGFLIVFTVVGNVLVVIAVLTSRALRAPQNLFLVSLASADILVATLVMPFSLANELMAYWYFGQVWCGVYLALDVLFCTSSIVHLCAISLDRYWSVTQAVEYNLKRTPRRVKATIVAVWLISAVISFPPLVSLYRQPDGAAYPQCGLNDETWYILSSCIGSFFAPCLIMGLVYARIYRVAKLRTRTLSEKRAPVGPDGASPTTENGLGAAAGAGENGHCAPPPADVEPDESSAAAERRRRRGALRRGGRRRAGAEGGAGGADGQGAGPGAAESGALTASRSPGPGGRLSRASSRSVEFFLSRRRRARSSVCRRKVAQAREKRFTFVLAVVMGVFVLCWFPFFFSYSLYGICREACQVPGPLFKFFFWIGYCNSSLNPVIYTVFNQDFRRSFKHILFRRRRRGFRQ

serotonin 5-HT1A = molecular target: T3, serotonin 5-HT1A (Homo sapiens, UniProt P08908); conditions: reported; cited from earlier work
T3 sequence (P08908 1-422): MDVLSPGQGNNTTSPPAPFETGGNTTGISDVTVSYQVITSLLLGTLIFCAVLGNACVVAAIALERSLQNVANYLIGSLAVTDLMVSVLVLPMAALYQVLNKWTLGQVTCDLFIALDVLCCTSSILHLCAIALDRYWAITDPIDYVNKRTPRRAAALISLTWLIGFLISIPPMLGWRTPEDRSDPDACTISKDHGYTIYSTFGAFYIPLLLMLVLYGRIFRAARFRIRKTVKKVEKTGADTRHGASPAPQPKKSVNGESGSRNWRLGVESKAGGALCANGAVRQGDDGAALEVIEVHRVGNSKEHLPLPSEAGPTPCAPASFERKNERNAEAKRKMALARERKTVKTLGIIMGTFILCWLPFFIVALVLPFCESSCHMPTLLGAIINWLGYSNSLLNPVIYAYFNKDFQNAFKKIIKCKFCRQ

dopamine D2 = dopamine D2 (Homo sapiens, UniProt P14416); conditions: reported; cited from earlier work
histamine H1 = histamine H1 (Homo sapiens, UniProt P35367); conditions: reported; cited from earlier work
aspartate = assay: Metabolomic analysis: aspartate level; set-up: species or system human; conditions: in vivo
Excerpt: as §1, §2, §6

[2] = system: patient diagnosed schizophrenia; assay: PANSS scoring, 6-week double-blind treatment; format: in vivo, human; conditions: 6 weeks; treatment responders only; lurasidone 40 mg/d, olanzapine 15 mg/d, placebo; FIG. 1
Experimental: Positive and Negative Syndrome Scale (PANSS) was measured according to the procedures well-established in the art. Clinical interviews were conducted by qualified trained professionals. A patient diagnosed schizophrenia was rated from 1 to 7 on 30 different symptoms based in the interview. The 30 symptoms assessed were: (1) positive symptoms, i.e., delusions, conceptual disorganization, hallucinations, hyperactivity, grandiosity, suspiciousness/persecution and hostility; (2) negative symptoms, i.e., blunted affect, emotional withdrawal, poor rapport, passive/apathetic social withdrawal, difficulty in abstract thinking, lack of spontaneity and flow of conversation and stereotyped thinking; and (3) general psychopathology symptoms, i.e., somatic concern, anxiety, guilt feelings, tension, mannerism and posturing, depression, motor retardation, uncooperativeness, unusual thought content, disorientation, poor attention, lack of judgment and insight, disturbance of volition, poor impulse control, preoccupation and active social avoidance. […]
Prior to the baseline visit, subjects underwent a 3-7 day washout of their current antipsychotic medication and randomized to receive either lurasidone (40 mg per day), olanzapine (15 mg per day) or placebo for 6 weeks. Symptom improvement was assessed by the change in PANSS score (total and subscale scores) from baseline to study endpoint. […]

[3] = system: positive and negative symptoms of schizophrenia; conditions: several placebo-controlled trials; cited from earlier work
[4] = Total Sample of treatment responders, lurasidone 40 mg/d, olanzapine 15 mg/d, plasma
[5] = subgroup PANSS Negative Change at Week 6 ≦median change score
[6] = subgroup PANSS Positive Change at Week 6 >median change score
[7] = subgroup PANSS Positive Change at Week 6 ≦median change score
[8] = subgroup PANSS Total Change at Week 6 >median change score
[9] = subgroup PANSS Total Change at Week 6 ≦median change score

Chain of dopamine D2 (P14416 whole entry): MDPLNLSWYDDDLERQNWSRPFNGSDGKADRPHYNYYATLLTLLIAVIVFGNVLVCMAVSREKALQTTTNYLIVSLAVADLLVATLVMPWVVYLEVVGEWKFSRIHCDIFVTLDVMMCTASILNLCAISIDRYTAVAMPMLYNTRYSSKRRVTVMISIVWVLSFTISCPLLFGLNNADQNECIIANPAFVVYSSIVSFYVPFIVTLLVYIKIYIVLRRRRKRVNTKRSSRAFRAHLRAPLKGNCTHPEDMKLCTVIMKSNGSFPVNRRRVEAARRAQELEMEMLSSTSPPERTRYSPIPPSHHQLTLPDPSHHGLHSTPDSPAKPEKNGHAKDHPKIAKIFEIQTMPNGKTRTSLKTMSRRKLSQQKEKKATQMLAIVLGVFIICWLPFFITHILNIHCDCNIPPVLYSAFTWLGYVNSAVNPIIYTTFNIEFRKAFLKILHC
Chain of 5-HT2A (P28223 whole entry, species assumed): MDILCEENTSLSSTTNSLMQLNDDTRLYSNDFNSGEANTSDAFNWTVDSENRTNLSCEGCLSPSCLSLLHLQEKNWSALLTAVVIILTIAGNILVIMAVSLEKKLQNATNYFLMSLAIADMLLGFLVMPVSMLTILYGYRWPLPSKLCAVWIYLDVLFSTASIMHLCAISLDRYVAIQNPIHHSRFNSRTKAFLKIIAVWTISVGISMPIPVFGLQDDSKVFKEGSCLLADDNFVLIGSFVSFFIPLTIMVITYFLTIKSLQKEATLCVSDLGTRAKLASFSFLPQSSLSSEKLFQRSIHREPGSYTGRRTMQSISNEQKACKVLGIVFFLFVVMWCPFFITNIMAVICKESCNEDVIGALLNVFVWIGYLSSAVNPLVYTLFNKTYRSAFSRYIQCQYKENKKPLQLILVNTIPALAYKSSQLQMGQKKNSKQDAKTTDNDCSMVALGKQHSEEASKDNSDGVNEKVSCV
Chain of histamine H1 (P35367 whole entry): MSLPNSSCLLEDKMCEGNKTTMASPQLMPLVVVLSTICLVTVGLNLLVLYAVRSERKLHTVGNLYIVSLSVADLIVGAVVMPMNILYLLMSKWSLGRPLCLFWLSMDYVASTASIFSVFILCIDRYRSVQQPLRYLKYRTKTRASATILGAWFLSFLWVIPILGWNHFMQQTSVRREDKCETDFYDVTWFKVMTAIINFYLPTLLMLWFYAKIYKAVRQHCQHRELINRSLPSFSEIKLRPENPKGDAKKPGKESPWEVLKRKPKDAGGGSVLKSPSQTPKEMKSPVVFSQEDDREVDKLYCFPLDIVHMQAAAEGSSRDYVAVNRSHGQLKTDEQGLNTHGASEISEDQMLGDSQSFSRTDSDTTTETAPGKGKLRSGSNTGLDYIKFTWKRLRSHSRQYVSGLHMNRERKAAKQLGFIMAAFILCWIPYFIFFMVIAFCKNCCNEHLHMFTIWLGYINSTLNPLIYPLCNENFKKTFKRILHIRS
Chain of 5-HT7 (P34969 whole entry, species assumed): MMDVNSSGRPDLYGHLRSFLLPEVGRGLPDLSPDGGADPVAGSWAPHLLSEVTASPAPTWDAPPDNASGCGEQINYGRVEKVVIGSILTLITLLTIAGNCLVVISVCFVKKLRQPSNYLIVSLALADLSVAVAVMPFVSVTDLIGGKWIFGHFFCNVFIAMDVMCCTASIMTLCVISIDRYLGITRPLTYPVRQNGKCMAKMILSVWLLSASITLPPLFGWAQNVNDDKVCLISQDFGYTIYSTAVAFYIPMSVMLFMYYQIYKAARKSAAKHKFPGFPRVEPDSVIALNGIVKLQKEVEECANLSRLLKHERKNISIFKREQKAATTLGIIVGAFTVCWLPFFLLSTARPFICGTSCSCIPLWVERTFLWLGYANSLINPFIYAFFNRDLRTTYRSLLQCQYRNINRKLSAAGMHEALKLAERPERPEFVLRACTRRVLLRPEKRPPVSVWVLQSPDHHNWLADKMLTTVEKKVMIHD

Cc1cc2c(s1)Nc1ccccc1N=C2N1CCN(C)CC1 [Olanzapine, olanzapine]
number of biochemicals significantly decreased (732 biochemicals): 46 | number of biochemicals significantly increased (732 biochemicals): 54 | share of biochemicals significantly changed (732 biochemicals): 14% | number of biochemicals whose serum levels were significantly changed (732 biochemicals): 100 | Glutamate Levels at Week 6, mean (SD) (glutamate; [4]): 1.00 (0.24) | Glutamate Levels at Week 6, mean (SD) (glutamate; subgroup PANSS Negative Change at Week 6 >median change score, *lurasidone vs. olanzapine P = 0.014, vs placebo P = 0.025): 0.97 (0.26) | Glutamate Levels at Week 6, mean (SD) (glutamate; [5]): 1.03 (0.23) | Glutamate Levels at Week 6, mean (SD) (glutamate; [6]): 1.02 (0.27) | Glutamate Levels at Week 6, mean (SD) (glutamate; [7]): 0.98 (0.22) | Glutamate Levels at Week 6, mean (SD) (glutamate; [8]): 1.01 (0.27) | Glutamate Levels at Week 6, mean (SD) (glutamate; [9]): 0.99 (0.26)

O=C1[C@@H]2[C@H]3CC[C@H](C3)[C@@H]2C(=O)N1C[C@@H]1CCCC[C@H]1CN1CCN(c2nsc3ccccc23)CC1 [Lurasidone]
level of glycine upon treatment (glycine): increased | number of biochemicals significantly decreased (732 biochemicals): 14 | number of biochemicals significantly increased (732 biochemicals): 11 | share of biochemicals significantly changed (732 biochemicals): 3% | number of biochemicals whose serum levels were significantly changed (732 biochemicals): 25 | level of serine upon treatment (serine): increased | affinity for 5-HT2A (5-HT2A): high affinity | affinity for muscarinic M1 receptors (muscarinic M1 receptors): minimal to no affinity | Glutamate Levels at Week 6, mean (SD) (glutamate; [4]): 1.12 (0.34) | overall glutamate level compared with the placebo group (glutamate; days 4 and weeks 6, treatment responders, FIG. 2): significantly greater | Glutamate Levels at Week 6, mean (SD) (glutamate; [5]): 1.00 (0.28) | Glutamate Levels at Week 6, mean (SD) (glutamate; [6]): 1.14 (0.41) | Glutamate Levels at Week 6, mean (SD) (glutamate; [7]): 1.09 (0.23) | Glutamate Levels at Week 6, mean (SD) (glutamate; [8]): 1.13 (0.38) | Glutamate Levels at Week 6, mean (SD) (glutamate; [9]): 1.09 (0.27) | glutamate level in responders with high improvement in negative symptoms compared with other responder groups (glutamate; week 6, PANSS negative change above median, FIG. 3): significantly higher increase; also recorded: significantly higher than all other responder groups | relation between levels of glutamate and change in PANSS negative subscore (glutamate; week 6, scatterplot FIG. 4): proportional | affinity for 5-HT7 (5-HT7): high affinity | affinity for noradrenaline α2C receptors [1]: high affinity | affinity for serotonin 5-HT1A (serotonin 5-HT1A): high affinity; also recorded: moderate affinity | affinity for dopamine D2 (dopamine D2): high affinity | affinity for histamine H1 (histamine H1): minimal to no affinity | level of aspartate upon treatment (aspartate): increased | improvement in PANSS total, positive and negative subscores across treatment groups [2]: comparable | ameliorating the positive and negative symptoms of schizophrenia [3]: effective
